Measured values taken from patent US6465527B1, “Iodinated hydrocarbon pesticide” (priority 1999, dated 2002).

Tests used:
Format in all cases: in vivo
[1] = test system: German cockroach, Blattella germanica (L.); test: Fumigant toxicity in sealed glass jar, German cockroach; settings: 30-60 adult males
[2] = test system: American cockroach, Periplaneta americana (L.); test: Fumigant toxicity in sealed glass jar, American cockroach; settings: 8-36 adult males
[3] = test system: Cowpea weevil, Callosobruchus maculatus (F.); test: Fumigant toxicity, Cowpea weevil; set-up: concentration or dose not given beside the values; settings: 30 adults
Protocol: Shown in Table 2 is the toxicity of both monoiodinated and diiodinated hydrocarbons to the German and American cockroach and the Cowpea weevil after 24 hours of exposure.

[4] = test system: 'Brim' soybean [Glycine max]; test: Soybean growth in treated soil (Experiments 1 and 2)
Protocol: Additionally, the nematicidal properties of iodinated hydrocarbons were investigated in greenhouse experiments with field soil infested with Meloidogyne arenaria and Heterodera Glycines. Chemicals were added directly to infested solid at rates <100 mg/Kg soil. Treated soil was kept moist (approximately 60 percent field capacity) and uncovered for 7-10 days when samples were collected, and the pots were planted with ‘Brim’ soybean, Glycine max. […] 1,2-diiodoethane (C2), 1,3-diiodopropane (C3), 1,4-diiodobutane (C4), 1,5-diiodopentane (C5), 1,6-diiodohexane (C6), and […] were applied to soil rates of 2.5, 5.0, 7.5, and 10 mg/Kg soil. All rates of C2 and C8 were ineffective in reducing M. arenaria juvenile (J2) populations in preplant samples. This was also true for C2 and J2 populations of H. glycines; however, […] rates ≧5.0 mg suppressed J2 populations of H. glycines. […] H. glycines J2 numbers in final soil samples were generally inversely related to rates for C3-C8. […] Applications of C3-C6 to soil increased shoot weights in a manner directly related to dosages but only in a curvilinear pattern.
In this experiment, the nematicidal properties of various diiodinated hydrocarbons were compared. The nematicidal properties of diiodinated C2-C8 normal hydrocarbons was assessed in a greenhouse experiment with field soil infested with Meloidogyne arenaria [Ma] and Heterodera glycines [Hg]. 1,2-diiodoethane [C2], 1,3-diiodopropane [C3], 1,4-diiodobutane [C4], 1.5-diiodopentane [C5], 1,6-diiodohexane [C6] and 1,8-diiodooctane [C8] were applied to soil at rates of 2.5, 5.0, 7.5, and 10.0 mgs/kg soil. The potted soil was kept moist in a greenhouse for 10 days when preplant samples were collected for analysis, and the pots were planted with ‘Brim’ soybean [Glycine max]. After 7 weeks of growth, the plants were removed and final soil samples taken. Data was collected on weights of fresh roots and shoots, root galling by Ma, and numbers of nematodes in soil and roots. All rates of C2 and C8 were ineffective in reducing Ma juvenile [J2] populations in the preplant samples. This was also true for C2 and J2 populations of Hg; however, C8 rates ≧5.0 mg suppressed J2 populations of Hg. […] Hg J2 numbers in final soil samples were generally inversely related to rates for C3-C8. This pattern of suppression in J2 numbers was also applicable to Ma in the final soil samples but only for C3-C6. […] Applications of C3-C6 to soil increased shoot weights in a manner directly related to dosages but non-linear in pattern.

[5] = test system: cyst [Heterodera glycines]; test: Greenhouse nematicide test, iodinated C1-C3 hydrocarbons (Experiment 4); settings: 0.4 ml rate
Protocol: In this experiment, the nematicidal properties of low molecular weight iodinated hydrocarbons were investigated. The nematicidal properties of iodinated C1-C3 hydrocarbons were evaluated in greenhouse experiments with field soil infested with root-knot [Meloidogyne arenaria] and cyst [Heterodera glycines] nematodes. lodomethane, di-iodomethane, iodoethane, di-iodoethane, and 1-iodopropane were added to soil at rates of 0.1, 0.2 and 0.4 ml/kg soil.
The treated soil was kept moist for 10 days when soil samples were taken for nematode analysis and ‘Brim’ soybean [Glycine max] planted. Soybeans were allowed to grow for 8 weeks and then were removed from the soil to determine plant growth, root-knot indices and the number of galls generated by M arenaria. […] All compounds except 1-iodopropane increased fresh shoot weight when applied at ≧0.1 ml/kg soil.

Meloidogyne arenaria = test: Greenhouse nematicide test, iodomethane vs ethylene diiodide (Experiment 5)
Protocol: (§1) In this experiment, the nematotoxic properties of ethylene diiodide were compared to that of methyl iodide. The nematicidal efficacies of iodomethane [IM] and ethylene diiodide [EDI] were compared in a greenhouse experiment using field soil infested with Meloidogyne arenaria, Pratylenchus brachyurus, and Paratrichodorus christiei.
(§2) Each compound was added to soil at rates of 100, 200, 300 and 400 mg s/kg of soil. The soil was potted and kept moist for two weeks when it was planted with ‘Brim’ soybean after taking samples for nematological analyses. After eight weeks of growth, the plants were removed from the pots and soil samples taken. Data was collected on weights of fresh roots and shoots, general appearance of roots [root condition index] and root gall formation by M. arenaria. All EDI rates eliminated M. arenaria juveniles [J2] and populations of the other nematodes in the preplant samples; IM reduced J2 numbers by 50-70%, eliminated P. christiei with the 400 mg rate, but had no effect on P. brachyurus. […] The general appearance of roots was improved by EDI at rates ≦300 mg, but MI had no effect on the variable. […] M. arenaria J2 populations in roots were reduced by 60-70% by MI treatments, but the compound had no effect on root populations of P. brachyurus. MI had no effect on J2 populations in the final soil samples, although it suppressed P. christiei, by 50-70%.

[6] = test system: Paratrichodorus christiei; test: as above; settings: all rates (100-400 mg/kg of soil)
Protocol: as §1, §2

Pratylenchus brachyurus = test: as above; settings: rates 100-400 mg/kg of soil
Protocol: as §1, §2

[7] = test system: Meloidogyne arenaria, Pratylenchus brachyurus, and Paratrichodorus christiei; test: Nematodes in roots and soils at end of Experiment 5 (all nematodes); settings: after eight weeks of growth
Protocol: as §1, §2

For ICCI [1,2-diiodoethane], the “% Mortality after 1 h exposure, German cockroach” value ([1]; 1 h exposure) was 40%, the “% Mortality after 24 h exposure, German cockroach” value ([1]; 24 h exposure) was 10% and the “% Mortality after 1 h exposure, American cockroach” value ([2]; 1 h exposure) was 8%. For the same compound, the “% Mortality after 24 h exposure, American cockroach” value ([2]; 24 h exposure) was 100%, the “% Mortality after 24 h exposure, Cowpea weevil” value [3] was 100% and the “Shoot weights of soybean” value ([4]; 2.5 mg rate) was “increased shoot weights slightly”. The “Shoot weights of soybean” value ([4]; rates higher than 2.5 mg) was “no significant effect”, the “H. glycines J2 populations in soil” value [5] was “eliminated” and the “M. arenaria juveniles [J2] in preplant samples” value (Meloidogyne arenaria; all rates (100, 200, 300, 400 mg/kg of soil)) was “eliminated”. For the same compound, the “Galls in roots of plants from treated soil (M. arenaria)” value (Meloidogyne arenaria; soybean after eight weeks) was “no galls”, the “P. christiei populations in preplant samples” value [6] was “eliminated” and the “P. brachyurus populations in preplant samples” value (Pratylenchus brachyurus) was “eliminated”. The “Nematodes in roots and soils at end of experiment” value [7] was “no nematodes”.
